Assay results as given in ChEMBL document CHEMBL1201862, “PubChem BioAssay data set” (2004).
Activity calls are given as the source filed them.

Key:
Format in all cases: functional
Protein RecA = molecular target: T1, Protein RecA (Mycobacterium tuberculosis, UniProt P9WHJ3); assay: Fluorescence Cell-Free Homogeneous Dose Retest to Identify Inhibitors of RecA-Intein Splicing Activity. [Related pubchem assays (depositor defined):AID2097, AID2223, AID489010, AID492950]
T1 sequence (P9WHJ3 whole entry): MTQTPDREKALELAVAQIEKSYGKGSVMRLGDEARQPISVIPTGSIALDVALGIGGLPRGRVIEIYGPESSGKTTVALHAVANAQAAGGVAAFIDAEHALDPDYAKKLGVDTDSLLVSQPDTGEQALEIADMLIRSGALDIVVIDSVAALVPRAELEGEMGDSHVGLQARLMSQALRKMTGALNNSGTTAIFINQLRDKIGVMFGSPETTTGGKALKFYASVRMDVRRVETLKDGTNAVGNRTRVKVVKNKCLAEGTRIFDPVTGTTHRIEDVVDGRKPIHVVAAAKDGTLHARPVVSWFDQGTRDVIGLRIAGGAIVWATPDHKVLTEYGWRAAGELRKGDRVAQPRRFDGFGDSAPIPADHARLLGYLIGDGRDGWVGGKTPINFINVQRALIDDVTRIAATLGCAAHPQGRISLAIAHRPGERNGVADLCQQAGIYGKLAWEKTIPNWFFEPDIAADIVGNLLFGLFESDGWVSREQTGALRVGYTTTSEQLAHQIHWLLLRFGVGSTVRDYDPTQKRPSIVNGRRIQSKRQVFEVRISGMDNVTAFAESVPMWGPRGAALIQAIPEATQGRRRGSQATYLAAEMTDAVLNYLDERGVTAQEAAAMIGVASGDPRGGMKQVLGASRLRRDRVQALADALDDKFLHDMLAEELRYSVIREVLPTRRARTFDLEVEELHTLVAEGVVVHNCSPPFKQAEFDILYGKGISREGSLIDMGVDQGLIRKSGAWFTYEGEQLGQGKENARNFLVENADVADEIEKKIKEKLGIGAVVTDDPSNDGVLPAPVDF

BJ = assay: cytotoxicity toward BJ-TERT fibroblasts, dose response, cell-based, RAS-independent, luminescence (AID 1933); settings: Homo sapiens
[1] = molecular target: T2, Sentrin-specific protease 6 (Homo sapiens, UniProt Q9GZR1);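 also: Luminescence-based dose-response confirmatory assay of SENP6 inhibition, following up an ultra-high-throughput screen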
T2 sequence (Q9GZR1 whole entry): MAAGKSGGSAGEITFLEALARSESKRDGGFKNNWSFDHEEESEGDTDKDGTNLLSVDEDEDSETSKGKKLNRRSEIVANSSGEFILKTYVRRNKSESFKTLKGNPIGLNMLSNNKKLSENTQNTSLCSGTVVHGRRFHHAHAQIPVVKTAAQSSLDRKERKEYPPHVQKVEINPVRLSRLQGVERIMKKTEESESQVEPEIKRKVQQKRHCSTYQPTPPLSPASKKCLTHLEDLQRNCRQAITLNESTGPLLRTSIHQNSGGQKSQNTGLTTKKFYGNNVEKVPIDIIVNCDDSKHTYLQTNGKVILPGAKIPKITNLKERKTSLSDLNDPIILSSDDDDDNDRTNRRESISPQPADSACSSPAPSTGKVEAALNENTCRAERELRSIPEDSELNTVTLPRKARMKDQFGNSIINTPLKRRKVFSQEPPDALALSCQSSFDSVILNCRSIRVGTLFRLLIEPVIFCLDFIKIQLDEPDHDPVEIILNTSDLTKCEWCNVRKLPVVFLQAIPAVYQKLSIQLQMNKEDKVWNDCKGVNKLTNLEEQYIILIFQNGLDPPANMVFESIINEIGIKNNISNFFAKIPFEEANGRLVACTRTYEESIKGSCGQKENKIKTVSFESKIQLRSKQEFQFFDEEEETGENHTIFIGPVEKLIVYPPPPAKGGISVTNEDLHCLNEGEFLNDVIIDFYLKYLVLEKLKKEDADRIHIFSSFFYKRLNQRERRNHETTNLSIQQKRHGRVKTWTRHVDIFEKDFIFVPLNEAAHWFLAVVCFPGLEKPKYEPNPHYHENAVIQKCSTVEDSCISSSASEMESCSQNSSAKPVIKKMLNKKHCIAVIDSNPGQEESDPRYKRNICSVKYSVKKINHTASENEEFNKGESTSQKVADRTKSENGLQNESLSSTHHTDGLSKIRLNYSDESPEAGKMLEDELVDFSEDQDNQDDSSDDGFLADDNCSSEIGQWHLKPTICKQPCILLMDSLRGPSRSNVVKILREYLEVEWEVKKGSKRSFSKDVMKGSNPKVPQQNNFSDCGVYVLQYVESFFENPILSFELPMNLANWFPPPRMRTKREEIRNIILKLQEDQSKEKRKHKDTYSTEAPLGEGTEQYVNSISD

[2] = molecular target: Serine/threonine-protein kinase D2 (Homo sapiens, UniProt Q9BZL6);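 also: measured against PRKD2 as one member of a kinome-wide kinase profiling panel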
Serine/threonine-protein kinase D2, sequence (Q9BZL6 whole entry): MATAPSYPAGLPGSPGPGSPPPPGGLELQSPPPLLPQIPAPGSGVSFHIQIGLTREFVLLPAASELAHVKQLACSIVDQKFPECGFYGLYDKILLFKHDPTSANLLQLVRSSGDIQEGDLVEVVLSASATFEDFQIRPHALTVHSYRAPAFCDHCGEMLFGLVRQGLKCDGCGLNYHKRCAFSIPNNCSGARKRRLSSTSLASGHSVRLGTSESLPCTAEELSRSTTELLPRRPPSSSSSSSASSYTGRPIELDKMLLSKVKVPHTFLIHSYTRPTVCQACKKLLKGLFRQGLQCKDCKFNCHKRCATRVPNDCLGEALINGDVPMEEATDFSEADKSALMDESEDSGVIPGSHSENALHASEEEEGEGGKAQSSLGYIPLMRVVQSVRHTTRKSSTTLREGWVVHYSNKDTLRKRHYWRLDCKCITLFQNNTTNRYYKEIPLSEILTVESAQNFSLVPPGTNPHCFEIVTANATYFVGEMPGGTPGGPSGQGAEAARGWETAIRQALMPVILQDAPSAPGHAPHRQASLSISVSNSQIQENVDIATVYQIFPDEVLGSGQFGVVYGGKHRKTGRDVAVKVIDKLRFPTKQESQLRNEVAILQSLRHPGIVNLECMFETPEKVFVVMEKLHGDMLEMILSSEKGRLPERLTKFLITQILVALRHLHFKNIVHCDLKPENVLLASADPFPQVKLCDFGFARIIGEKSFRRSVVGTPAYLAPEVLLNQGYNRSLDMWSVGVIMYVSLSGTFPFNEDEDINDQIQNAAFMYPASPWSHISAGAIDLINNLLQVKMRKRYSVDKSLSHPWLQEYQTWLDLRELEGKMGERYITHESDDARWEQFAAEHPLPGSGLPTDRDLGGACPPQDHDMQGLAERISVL

[3] = molecular target: Tyrosine-protein kinase Lck (Homo sapiens, UniProt P06239);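 also: lck was assayed as one member of a kinase panel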
[4] = molecular target: Tyrosine-protein kinase Fyn (Homo sapiens, UniProt P06241)
Tyrosine-protein kinase Fyn, sequence (P06241 whole entry): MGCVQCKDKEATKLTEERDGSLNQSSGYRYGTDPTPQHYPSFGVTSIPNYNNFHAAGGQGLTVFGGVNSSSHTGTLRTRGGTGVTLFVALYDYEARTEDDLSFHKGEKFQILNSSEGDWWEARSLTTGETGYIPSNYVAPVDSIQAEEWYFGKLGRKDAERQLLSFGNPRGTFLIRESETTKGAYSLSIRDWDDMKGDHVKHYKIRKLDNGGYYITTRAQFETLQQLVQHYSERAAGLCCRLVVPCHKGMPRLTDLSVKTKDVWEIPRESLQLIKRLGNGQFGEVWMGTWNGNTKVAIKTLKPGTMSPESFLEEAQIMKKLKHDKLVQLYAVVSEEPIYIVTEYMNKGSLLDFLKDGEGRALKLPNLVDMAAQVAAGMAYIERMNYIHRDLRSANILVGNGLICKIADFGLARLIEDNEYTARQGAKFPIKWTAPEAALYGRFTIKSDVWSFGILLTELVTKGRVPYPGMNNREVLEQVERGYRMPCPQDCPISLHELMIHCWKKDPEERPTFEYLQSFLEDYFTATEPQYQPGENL

[5] = molecular target: Cyclin-dependent kinase 7 (Homo sapiens, UniProt P50613);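 also: value comes from a kinome-wide kinase profiling panel in which CDK7 is one member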
Cyclin-dependent kinase 7, sequence (P50613 whole entry): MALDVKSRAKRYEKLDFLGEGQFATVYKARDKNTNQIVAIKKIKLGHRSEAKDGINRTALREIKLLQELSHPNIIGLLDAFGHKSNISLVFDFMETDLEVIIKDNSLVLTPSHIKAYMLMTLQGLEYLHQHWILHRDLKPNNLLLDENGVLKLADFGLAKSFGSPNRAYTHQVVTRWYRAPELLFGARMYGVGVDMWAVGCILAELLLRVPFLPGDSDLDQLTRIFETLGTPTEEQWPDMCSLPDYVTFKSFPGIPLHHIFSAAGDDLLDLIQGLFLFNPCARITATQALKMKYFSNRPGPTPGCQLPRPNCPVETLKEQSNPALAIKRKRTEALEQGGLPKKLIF

[6] = molecular target: Leucine-rich repeat serine/threonine-protein kinase 2 (Homo sapiens, UniProt Q5S007);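 also: value from a broad kinome-wide panel profiling study in which LRRK2 was one of the kinases tested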
Leucine-rich repeat serine/threonine-protein kinase 2, sequence (Q5S007 whole entry): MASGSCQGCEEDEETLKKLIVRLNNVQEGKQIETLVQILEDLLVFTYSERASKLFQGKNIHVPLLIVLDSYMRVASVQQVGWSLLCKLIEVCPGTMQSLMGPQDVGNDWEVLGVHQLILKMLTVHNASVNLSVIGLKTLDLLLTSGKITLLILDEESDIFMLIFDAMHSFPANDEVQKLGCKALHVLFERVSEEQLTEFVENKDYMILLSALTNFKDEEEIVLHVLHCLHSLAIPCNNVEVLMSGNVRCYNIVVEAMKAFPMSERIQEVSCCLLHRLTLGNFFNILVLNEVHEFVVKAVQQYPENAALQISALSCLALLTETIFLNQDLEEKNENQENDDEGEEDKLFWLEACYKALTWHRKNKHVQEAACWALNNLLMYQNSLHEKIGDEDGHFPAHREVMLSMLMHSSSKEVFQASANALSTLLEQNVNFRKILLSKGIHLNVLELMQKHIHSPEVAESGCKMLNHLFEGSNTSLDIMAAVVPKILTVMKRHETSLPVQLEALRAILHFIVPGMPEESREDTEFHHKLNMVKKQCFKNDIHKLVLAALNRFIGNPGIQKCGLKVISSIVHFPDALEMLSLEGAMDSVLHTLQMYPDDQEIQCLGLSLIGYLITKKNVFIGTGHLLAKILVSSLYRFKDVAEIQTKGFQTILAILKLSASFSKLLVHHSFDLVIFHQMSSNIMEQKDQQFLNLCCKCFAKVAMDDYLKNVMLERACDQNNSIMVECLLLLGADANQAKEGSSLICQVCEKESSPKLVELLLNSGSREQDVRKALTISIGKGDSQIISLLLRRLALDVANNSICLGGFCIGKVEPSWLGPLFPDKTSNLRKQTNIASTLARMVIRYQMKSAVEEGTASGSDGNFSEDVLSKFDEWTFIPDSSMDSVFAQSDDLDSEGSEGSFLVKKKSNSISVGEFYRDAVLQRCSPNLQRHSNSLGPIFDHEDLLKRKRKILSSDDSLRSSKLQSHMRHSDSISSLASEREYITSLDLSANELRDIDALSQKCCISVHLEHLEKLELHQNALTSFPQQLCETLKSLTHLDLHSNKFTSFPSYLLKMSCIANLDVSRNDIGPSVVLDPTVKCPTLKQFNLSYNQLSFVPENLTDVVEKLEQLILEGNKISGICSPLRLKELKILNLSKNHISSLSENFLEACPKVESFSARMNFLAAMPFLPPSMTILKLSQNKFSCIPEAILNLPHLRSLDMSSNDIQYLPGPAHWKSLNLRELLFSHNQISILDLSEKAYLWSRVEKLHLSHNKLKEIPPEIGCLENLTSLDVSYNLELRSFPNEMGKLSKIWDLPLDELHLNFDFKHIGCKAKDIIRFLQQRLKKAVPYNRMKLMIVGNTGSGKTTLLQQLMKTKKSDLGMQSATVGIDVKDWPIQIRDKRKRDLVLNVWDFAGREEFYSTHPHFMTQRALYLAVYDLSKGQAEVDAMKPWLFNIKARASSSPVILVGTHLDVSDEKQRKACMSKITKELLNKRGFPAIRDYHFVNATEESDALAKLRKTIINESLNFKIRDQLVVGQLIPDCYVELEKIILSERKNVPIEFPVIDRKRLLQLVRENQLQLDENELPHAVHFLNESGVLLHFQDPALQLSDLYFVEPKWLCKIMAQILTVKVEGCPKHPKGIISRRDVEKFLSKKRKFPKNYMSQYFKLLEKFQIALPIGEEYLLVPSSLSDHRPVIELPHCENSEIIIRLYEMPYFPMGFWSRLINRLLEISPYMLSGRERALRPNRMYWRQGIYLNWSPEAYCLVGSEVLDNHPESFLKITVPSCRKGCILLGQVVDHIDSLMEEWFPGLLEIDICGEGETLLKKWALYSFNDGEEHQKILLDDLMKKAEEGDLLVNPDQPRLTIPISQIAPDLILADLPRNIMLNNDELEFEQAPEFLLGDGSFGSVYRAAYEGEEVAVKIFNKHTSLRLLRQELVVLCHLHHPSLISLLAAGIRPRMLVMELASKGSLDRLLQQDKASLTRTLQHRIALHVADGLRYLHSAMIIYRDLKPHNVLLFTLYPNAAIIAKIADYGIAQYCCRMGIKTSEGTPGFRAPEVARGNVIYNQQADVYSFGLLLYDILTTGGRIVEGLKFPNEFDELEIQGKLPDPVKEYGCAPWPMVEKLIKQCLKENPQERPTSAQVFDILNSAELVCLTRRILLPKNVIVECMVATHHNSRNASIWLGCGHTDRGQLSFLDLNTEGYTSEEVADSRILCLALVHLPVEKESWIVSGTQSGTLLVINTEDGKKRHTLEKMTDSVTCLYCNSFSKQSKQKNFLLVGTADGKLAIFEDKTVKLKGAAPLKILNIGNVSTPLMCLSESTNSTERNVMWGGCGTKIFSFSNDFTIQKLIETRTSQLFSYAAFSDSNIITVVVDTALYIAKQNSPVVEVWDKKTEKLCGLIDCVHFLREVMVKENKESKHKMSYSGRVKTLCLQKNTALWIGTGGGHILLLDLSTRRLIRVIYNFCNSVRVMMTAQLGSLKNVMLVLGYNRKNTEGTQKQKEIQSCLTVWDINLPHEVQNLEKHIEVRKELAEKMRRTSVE

[7] = molecular target: Interleukin-1 receptor-associated kinase 1 (Homo sapiens, UniProt P51617);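 also: IRAK1 tested as one member of a kinome panel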
Interleukin-1 receptor-associated kinase 1, sequence (P51617 whole entry): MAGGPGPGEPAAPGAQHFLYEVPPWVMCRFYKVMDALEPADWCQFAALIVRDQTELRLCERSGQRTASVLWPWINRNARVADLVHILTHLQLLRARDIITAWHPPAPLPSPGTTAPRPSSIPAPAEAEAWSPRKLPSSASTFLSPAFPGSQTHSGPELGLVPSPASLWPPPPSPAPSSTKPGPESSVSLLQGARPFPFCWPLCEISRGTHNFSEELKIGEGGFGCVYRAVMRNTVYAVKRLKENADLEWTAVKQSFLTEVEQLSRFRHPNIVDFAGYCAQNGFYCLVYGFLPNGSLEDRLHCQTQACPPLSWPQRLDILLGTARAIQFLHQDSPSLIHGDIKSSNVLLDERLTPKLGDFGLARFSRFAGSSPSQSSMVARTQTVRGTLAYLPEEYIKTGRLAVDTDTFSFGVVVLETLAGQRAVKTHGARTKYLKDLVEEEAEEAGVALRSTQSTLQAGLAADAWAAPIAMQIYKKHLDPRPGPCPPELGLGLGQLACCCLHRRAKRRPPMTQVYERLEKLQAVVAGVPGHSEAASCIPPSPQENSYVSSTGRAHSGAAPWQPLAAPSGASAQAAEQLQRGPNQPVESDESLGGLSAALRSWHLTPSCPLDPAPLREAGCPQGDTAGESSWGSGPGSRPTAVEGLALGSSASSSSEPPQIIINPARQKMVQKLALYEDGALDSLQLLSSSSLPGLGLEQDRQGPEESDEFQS

[8] = molecular target: Tyrosine-protein kinase JAK3 (Homo sapiens, UniProt P52333)

## COC(=O)C1CN(C#N)N(c2ccc(Cl)cc2)C12c1ccccc1-c1ccccc12 (stereo unspecified)
Protein RecA
  EC50: 7 µM (active)
BJ
  EC50: 1.93 µM (active)

## Cc1ccc2[nH]c(/C(C#N)=C/c3ccc(O)c(O)c3)nc2c1
[1]
  IC50: 27.9 µM (active)

## Nc1noc2cccc(-c3cccc(O)c3)c12
[2]
  Ki: 7.94 µM (active)
[3]
  Ki: > 25.1 µM (inactive)
[4]
  Ki: > 7.94 µM (inactive)
[5]
  Ki: 20 µM (active)
[6]
  Ki: 3.16 µM (active)
[7]
  Ki: > 7.94 µM (inactive)
[8]
  Ki: > 1.58 µM (inactive)

## CN(C)S(=O)(=O)Oc1cccc(C(=O)Nc2ccc(Cl)c(Cl)c2)c1
[1]
  IC50: 13.6 µM (active)
